In patent publication US9695155B2, “Herbicidal substituted pyrimidinyloxy benzene compounds” (E. I. DU PONT DE NEMOURS AND COMPANY, priority 2013, dated 2017):

Experiments:
[1] = system: velvetleaf; experiment: Test A postemergence; format: in vivo, Abutilon theophrasti
Method in brief: (§1)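 Greenhouse pot test, loam/sand soil. Formulation: non-phytotoxic solvent mix plus surfactant. Pre: directed spray onto soil after sowing. Post: plants at 1–2 leaf, 2–10 cm. Rated visually vs untreated controls at ~10 d, 0 (no effect) to 100 (complete control).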

[2] = system: corn; experiment: Test A postemergence; format: in vivo, Zea mays
Method in brief: as §1

[3] = system: rice; experiment: Test B flooded paddy test; format: in vivo, Oryza sativa; conditions: Flood, 250 g ai/ha; 0 to 100 scale where 0 is no effect and 100 is complete control
Method in brief: (§2)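 2-leaf stage plants; pots flooded to 3 cm, compound added to paddy water, depth maintained. Greenhouse 13–15 d. Visual rating vs untreated controls, 0 (no effect) to 100 (complete control); dash = no result.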

[4] = system: morningglory; experiment: Test A postemergence; format: in vivo, Ipomoea spp.
Method in brief: as §1

[5] = system: large (Lg) crabgrass; experiment: Test A preemergence; format: in vivo, Digitaria sanguinalis; conditions: for Plant response rating, Crabgrass, Large: 125 g ai/ha, 0 to 100 scale where 0 is no effect and 100 is complete control; for Crabgrass, Large plant response rating: 500 g ai/ha, 0 to 100 scale, 0 no effect, 100 complete control, approx. 10 days
Method in brief: as §1

[6] = system: wheat; experiment: Test A preemergence; format: in vivo, Triticum aestivum; conditions: for Plant response rating, Wheat: 125 g ai/ha, 0 to 100 scale where 0 is no effect and 100 is complete control
Method in brief: as §1

[7] = system: morningglory; experiment: Test A preemergence; format: in vivo, Ipomoea spp.; conditions: for Plant response rating, Morningglory: 125 g ai/ha, 0 to 100 scale where 0 is no effect and 100 is complete control; for Morningglory plant response rating: 500 g ai/ha, 0 to 100 scale, 0 no effect, 100 complete control, approx. 10 days
Method in brief: as §1

[8] = system: giant foxtail; experiment: Test A postemergence; format: in vivo, Setaria faberii
Method in brief: as §1

[9] = system: wheat; experiment: Test A postemergence; format: in vivo, Triticum aestivum
Method in brief: as §1

[10] = system: barnyardgrass; experiment: Test A postemergence; format: in vivo, Echinochloa crus-galli
Method in brief: as §1

[11] = system: pigweed; experiment: Test A preemergence; format: in vivo, Amaranthus retroflexus; conditions: for Plant response rating, Pigweed: 125 g ai/ha, 0 to 100 scale where 0 is no effect and 100 is complete control; for Pigweed plant response rating: 500 g ai/ha, 0 to 100 scale, 0 no effect, 100 complete control, approx. 10 days
Method in brief: as §1

[12] = system: giant foxtail; experiment: Test A preemergence; format: in vivo, Setaria faberii; conditions: for Plant response rating, Foxtail, Giant: 125 g ai/ha, 0 to 100 scale where 0 is no effect and 100 is complete control; for Foxtail, Giant plant response rating: 500 g ai/ha, 0 to 100 scale, 0 no effect, 100 complete control, approx. 10 days
Method in brief: as §1

[13] = system: barnyardgrass; experiment: Test A preemergence; format: in vivo, Echinochloa crus-galli; conditions: for Plant response rating, Barnyardgrass: 125 g ai/ha, 0 to 100 scale where 0 is no effect and 100 is complete control; for Barnyardgrass plant response rating: 500 g ai/ha, 0 to 100 scale, 0 no effect, 100 complete control, approx. 10 days
Method in brief: as §1

[14] = system: pigweed; experiment: Test A postemergence; format: in vivo, Amaranthus retroflexus
Method in brief: as §1

[15] = system: velvetleaf; experiment: Test A preemergence; format: in vivo, Abutilon theophrasti; conditions: for Plant response rating, Velvetleaf: 125 g ai/ha, 0 to 100 scale where 0 is no effect and 100 is complete control
Method in brief: as §1

[16] = system: Heteranthera limosa; experiment: Test B flooded paddy test; format: in vivo; conditions: Flood, 250 g ai/ha; 0 to 100 scale where 0 is no effect and 100 is complete control
Method in brief: as §2

[17] = system: sedge, umbrella; experiment: Test B flooded paddy test; format: in vivo, Cyperus difformis; conditions: Flood, 250 g ai/ha; 0 to 100 scale where 0 is no effect and 100 is complete control
Method in brief: as §2

[18] = system: corn; experiment: Test A preemergence; format: in vivo, Zea mays; conditions: for Plant response rating, Corn: 125 g ai/ha, 0 to 100 scale where 0 is no effect and 100 is complete control; for Corn plant response rating: 500 g ai/ha, 0 to 100 scale, 0 no effect, 100 complete control, approx. 10 days
Method in brief: as §1

[19] = system: barnyardgrass; experiment: Test B flooded paddy test; format: in vivo, Echinochloa crus-galli; conditions: Flood, 250 g ai/ha; 0 to 100 scale where 0 is no effect and 100 is complete control
Method in brief: as §2

[20] = system: large (Lg) crabgrass; experiment: Test A postemergence; format: in vivo, Digitaria sanguinalis
Method in brief: as §1

[21] = 125 g ai/ha, 0 to 100 scale where 0 is no effect and 100 is complete control
[22] = 500 g ai/ha, 0 to 100 scale where 0 is no effect and 100 is complete control
[23] = 500 g ai/ha, 0 to 100 scale, 0 no effect, 100 complete control
[24] = 500 g ai/ha, 0 to 100 scale, 0 no effect, 100 complete control, approx. 10 days

| Compound | Plant response rating, Velvetleaf [1, 21] | Plant response rating, Corn [2, 21] | Plant response rating, Rice [3] | Plant response rating, Morningglory [4, 21] | Plant response rating, Crabgrass, Large [5] | Crabgrass, Large plant response rating [5] | Plant response rating, Wheat [6] | Plant response rating, Morningglory [7] | Morningglory plant response rating [7] | Plant response rating, Foxtail, Giant [8, 21] | Plant response rating, Wheat [9, 21] | Plant response rating, Barnyardgrass [10, 21] | Plant response rating, Pigweed [11] | Pigweed plant response rating [11] | Plant response rating, Foxtail, Giant [12] | Foxtail, Giant plant response rating [12] | Plant response rating, Barnyardgrass [13] | Barnyardgrass plant response rating [13] | Plant response rating, Pigweed [14, 21] | Plant response rating, Velvetleaf [15] | other results |
| --- | --- | --- | --- | --- | --- | --- | --- | --- | --- | --- | --- | --- | --- | --- | --- | --- | --- | --- | --- | --- | --- |
| O=Cc1cccc(Oc2ncc(F)cn2)c1-n1cc(Cl)cn1 [Compound 93] | 0 | 0 | 0 | 0 | 0 | 30 | 0 | 0 | 0 | 0 | 0 | 0 | 0 | 30 | 0 | 0 | 0 | 0 | 0 | 0 | Plant response rating, Velvetleaf [1, 22]: 0; Plant response rating, Corn [2, 22]: 0; Plant response rating, Morningglory [4, 22]: 0; Plant response rating, Foxtail, Giant [8, 22]: 0; Plant response rating, Wheat [9, 22]: 0; Plant response rating, Barnyardgrass [10, 22]: 0; Plant response rating, Pigweed [14, 22]: 0; Plant response rating, Ducksalad [16]: 0; Plant response rating, Sedge, Umbrella [17]: 0; Plant response rating, Corn [18]: 0; Corn plant response rating [18]: 0; Plant response rating, Barnyardgrass [19]: 0; Plant response rating, Crabgrass, Large [20, 21]: 0; Plant response rating, Crabgrass, Large [20, 22]: 0 |
| CC(C)(C)c1ccn(-c2ccccc2Oc2ncc(Br)cn2)n1 [Compound 30] | 20 | 0 | 0 | 0 | 40 | 60 | 0 | 0 | 0 | 10 | 0 | 10 | 0 | 0 | 0 | 30 | 0 | 10 | 0 | 10 | Plant response rating, Velvetleaf [1, 23]: 30; Plant response rating, Corn [2, 23]: 0; Plant response rating, Morningglory [4, 23]: 0; Wheat plant response rating [6, 24]: 0; Plant response rating, Foxtail, Giant [8, 23]: 10; Plant response rating, Wheat [9, 23]: 0; Plant response rating, Barnyardgrass [10, 23]: 10; Plant response rating, Pigweed [14, 23]: 30; Velvetleaf plant response rating [15, 24]: 40; Plant response rating, Ducksalad [16]: 0; Plant response rating, Sedge, Umbrella [17]: 0; Plant response rating, Corn [18]: 0; Corn plant response rating [18]: 0; Plant response rating, Barnyardgrass [19]: 0; Plant response rating, Crabgrass, Large [20, 21]: 30; Plant response rating, Crabgrass, Large [20, 23]: 40 |
